Experimental data reported in US20240209027A1, “PEPTIDE AND PEPTIDE-CONTAINING COMPOSITION” (PeptiAID Inc.,, priority 2021, published 2024).
Starred links: 1 amine or outer side, 2 acyl side, 3 side chain; linkers in the order of their positions; H or OH if unused. Positions of bridges follow the written chain, without caps; N, C: chain ends. Non-standard residues stand in square brackets, D forms with d. Residues, ends and D or L forms follow the SMILES beside them. Chains are numbered I, II in the order given. ξ: configuration not given here. *: point of attachment. X5 = O=C(O)CCCCCCCCCCCCC(=O)N[C@@H](CCC(=O)N[C@@H](CCCCN*)C(=O)O)C(=O)O; X4 = O=C(O)CCCCCCCCCCC(=O)N[C@@H](CCC(=O)N[C@@H](CCCCN*)C(=O)O)C(=O)O; X6 = O=C(O)CCCCCCCCC(=O)N[C@@H](CCC(=O)N[C@@H](CCCCN*)C(=O)O)C(=O)O; Ala(piperidin-4-yl) = O=C([C@H](CC1CCN([*:3])CC1)N[*:1])[*:2]; Ala(indan-2-yl) = N[C@@H](CC1Cc2ccccc2C1)C(=O)O; Phe(4-COOH) = N[C@@H](Cc1ccc(C(=O)O)cc1)C(=O)O; X3 = O=C(O)CN1CCC(N[*:1])(C(=O)[*:2])CC1; Phe(4-F) = N[C@@H](Cc1ccc(F)cc1)C(=O)O; C12 diacid = O=C(O)CCCCCCCCCCC(=O)*; X1 = C[C@@H](Cc1ccc(O)cc1)C(=O)*; 3Pal = N[C@@H](Cc1cccnc1)C(=O)O; NMeE = CN[C@@H](CCC(=O)O)C(=O)O; dNMeE = CN[C@H](CCC(=O)O)C(=O)O; Cha = N[C@@H](CC1CCCCC1)C(=O)O; Cit = NC(=O)NCCC[C@H](N)C(=O)O; dNMeD = CN[C@H](CC(=O)O)C(=O)O; NMeNle = CCCC[C@H](NC)C(=O)O; hCys = N[C@@H](CCS)C(=O)O; ξαMeS = CC(N)(CO)C(=O)O; X2 = O=C(C[*:1])[*:2]; Aib = CC(C)(N)C(=O)O

Tested on: SARS-CoV-2-derived S protein, Delta strain
Assay type: cell-based
Conditions: Table 12

In the case of `CCCC[C@H]1C(=O)NC(C)(C)C(=O)N[C@@H](CC2CCCCC2)C(=O)N[C@@H](Cc2ccc(F)cc2)C(=O)N[C@H](CC(=O)O)C(=O)N[C@@H](Cc2ccc(O)cc2)C(=O)N[C@@H](Cc2ccc(O)cc2)C(=O)N[C@@H](CCCNC(N)=O)C(=O)N[C@H](CCCCN)C(=O)N[C@@H](CC2CCCCC2)C(=O)N[C@H](C(=O)N[C@H](CCC(=O)O)C(=O)NCCCC[C@H](NC(=O)CC[C@H](NC(=O)CCCCCCCCCCC(=O)O)C(=O)O)C(=O)O)CSCC(=O)N(C)[C@@H](CCC(=O)O)C(=O)N1C` [Peptide 5555_p234] ({CH2CO}-[NMeE][NMeNle][Aib][Cha][Phe(4-F)][dD]YY[Cit][dK][Cha]C[dE]-X4; thioether N-12), the IC50 is reported as 5.9 nM and the “Imax: % (at 500 nM)” value is reported as 99%.
With `CCCC[C@@H](C(=O)NC(C)(C)C(=O)N[C@@H](CC1CCCCC1)C(=O)N[C@@H](Cc1ccc(F)cc1)C(=O)N[C@H](CC(=O)O)C(N)=O)N(C)C(=O)[C@H](CCC(=O)O)N(C)C(=O)CSCC[C@H](NC(=O)[C@H](CC1CCCCC1)NC(=O)[C@@H](CCCCN)NC(=O)[C@H](CCCNC(N)=O)NC(=O)[C@H](Cc1ccc(O)cc1)NC(=O)[C@@H](C)Cc1ccc(O)cc1)C(=O)N[C@H](CCC(=O)O)C(=O)N[C@H](CCCCNC(=O)CCCCCCCCCCC(=O)O)C(N)=O` [Peptide 5555_p221] (I: X1-Y[Cit][dK][Cha][hCys][dE][dK](C12 diacid)-NH2 / II: [NMeE][NMeNle][Aib][Cha][Phe(4-F)][dD]-NH2; linker I:5-II:N via X2) the IC50 was 2.6 nM and the “Imax: % (at 500 nM)” value was 97%.
For `CCCC[C@H]1C(=O)NC(C)(C)C(=O)N[C@@H](CC2Cc3ccccc3C2)C(=O)N[C@@H](Cc2ccc(F)cc2)C(=O)NC2(CCN(CC(=O)O)CC2)C(=O)N[C@@H](Cc2ccc(O)cc2)C(=O)N[C@@H](Cc2ccc(O)cc2)C(=O)N[C@@H](Cc2ccc(C(=O)O)cc2)C(=O)N[C@@H](CC2CCNCC2)C(=O)N[C@@H](CC2CCCCC2)C(=O)N[C@H](C(=O)N[C@H](CCC(=O)O)C(N)=O)CSCC(=O)N(C)[C@@H](CCC(=O)O)C(=O)N1C` [Peptide 5555_p196] ({CH2CO}-[NMeE][NMeNle][Aib][Ala(indan-2-yl)][Phe(4-F)][X3]YY[Phe(4-COOH)][Ala(piperidin-4-yl)][Cha]C[dE]-NH2; thioether N-12), the IC50 was 0.8 nM and the “Imax: % (at 500 nM)” value was 101%.
With `CCCC[C@H]1C(=O)NC(C)(C)C(=O)N[C@@H](CC2Cc3ccccc3C2)C(=O)N[C@@H](Cc2ccc(F)cc2)C(=O)N[C@H](CC(=O)O)C(=O)N[C@@H](Cc2ccc(O)cc2)C(=O)N[C@@H](Cc2ccc(O)cc2)C(=O)N[C@@H](CCCNC(N)=O)C(=O)N[C@H](CCCCN)C(=O)N[C@@H](CC2CCCCC2)C(=O)N[C@H](C(=O)N[C@H](CCC(=O)O)C(N)=O)CSCC(=O)N[C@@H](Cc2cccnc2)C(=O)N1C` [Peptide 5555_p178] ({CH2CO}-[3Pal][NMeNle][Aib][Ala(indan-2-yl)][Phe(4-F)][dD]YY[Cit][dK][Cha]C[dE]-NH2; thioether N-12) the IC50 was 1.9 nM and the “Imax: % (at 500 nM)” value was 100%.
With `CCCC[C@H]1C(=O)NC(C)(C)C(=O)N[C@@H](CC2CCCCC2)C(=O)N[C@@H](Cc2ccc(F)cc2)C(=O)N[C@H](CC(=O)O)C(=O)N[C@@H](Cc2ccc(O)cc2)C(=O)N[C@@H](Cc2ccc(O)cc2)C(=O)N[C@@H](CCCNC(N)=O)C(=O)N[C@H](CCCCN)C(=O)N[C@@H](CC2CCCCC2)C(=O)N[C@H](C(=O)N[C@H](CCC(=O)O)C(=O)NCCCC[C@H](NC(=O)CC[C@H](NC(=O)CCCCCCCCCCCCC(=O)O)C(=O)O)C(=O)O)CSCC(=O)N(C)[C@@H](CCC(=O)O)C(=O)N1C` [Peptide 5555_p235] ({CH2CO}-[NMeE][NMeNle][Aib][Cha][Phe(4-F)][dD]YY[Cit][dK][Cha]C[dE]-X5; thioether N-12) the IC50 was 7 nM and the “Imax: % (at 500 nM)” value was 99%.
In the case of `CCCC[C@H]1C(=O)NC(C)(C)C(=O)N[C@@H](CC2CCCCC2)C(=O)N[C@@H](Cc2ccc(F)cc2)C(=O)NC(C)(CO)C(=O)N[C@@H](Cc2ccc(O)cc2)C(=O)N[C@@H](Cc2ccc(O)cc2)C(=O)N[C@@H](Cc2ccc(C(=O)O)cc2)C(=O)N[C@@H](CC2CCNCC2)C(=O)N[C@@H](CC2CCCCC2)C(=O)N[C@H](C(=O)N[C@H](CCC(=O)O)C(N)=O)CSCC(=O)N(C)[C@@H](CCC(=O)O)C(=O)N1C` (stereo partly shown) [Peptide 5555_p203] ({CH2CO}-[NMeE][NMeNle][Aib][Cha][Phe(4-F)][ξαMeS]YY[Phe(4-COOH)][Ala(piperidin-4-yl)][Cha]C[dE]-NH2; thioether N-12), the IC50 is reported as 0.5 nM and the “Imax: % (at 500 nM)” value is reported as 101%.
With `CCCC[C@H]1C(=O)NC(C)(C)C(=O)N[C@@H](CC2CCCCC2)C(=O)N[C@@H](Cc2ccc(F)cc2)C(=O)N(C)[C@H](CCC(=O)O)C(=O)N[C@@H](Cc2ccc(O)cc2)C(=O)N[C@@H](Cc2ccc(O)cc2)C(=O)N[C@@H](Cc2ccc(C(=O)O)cc2)C(=O)N[C@@H](CC2CCNCC2)C(=O)N[C@@H](CC2CCCCC2)C(=O)N[C@H](C(=O)N[C@H](CCC(=O)O)C(N)=O)CSCC(=O)N[C@@H](Cc2cccnc2)C(=O)N1C` [Peptide 5555_p192] ({CH2CO}-[3Pal][NMeNle][Aib][Cha][Phe(4-F)][dNMeE]YY[Phe(4-COOH)][Ala(piperidin-4-yl)][Cha]C[dE]-NH2; thioether N-12) the IC50 was 2.5 nM and the “Imax: % (at 500 nM)” value was 102%.
`CCCC[C@H]1C(=O)NC(C)(C)C(=O)N[C@@H](CC2CCCCC2)C(=O)N[C@@H](Cc2ccc(F)cc2)C(=O)N[C@H](CC(=O)O)C(=O)N[C@@H](Cc2ccc(O)cc2)C(=O)N[C@@H](Cc2ccc(O)cc2)C(=O)N[C@@H](CCCNC(N)=O)C(=O)N[C@H](CCCCN)C(=O)N[C@@H](CC2CCCCC2)C(=O)N[C@H](C(=O)N[C@H](CCC(=O)O)C(N)=O)CSCC(=O)N[C@@H](Cc2cccnc2)C(=O)N1C` [Peptide 5555_p177] ({CH2CO}-[3Pal][NMeNle][Aib][Cha][Phe(4-F)][dD]YY[Cit][dK][Cha]C[dE]-NH2; thioether N-12) was tested, and the IC50 was 2.8 nM and the “Imax: % (at 500 nM)” value was 97%.
For `CCCC[C@H]1C(=O)NC(C)(C)C(=O)N[C@@H](CC2CCCCC2)C(=O)N[C@@H](Cc2ccc(F)cc2)C(=O)N[C@H](CC(=O)O)C(=O)N[C@@H](Cc2ccc(O)cc2)C(=O)N[C@@H](Cc2ccc(O)cc2)C(=O)N[C@@H](Cc2ccc(C(=O)O)cc2)C(=O)N[C@@H](CC2CCNCC2)C(=O)N[C@@H](CC2CCCCC2)C(=O)N[C@H](C(=O)N[C@H](CCC(=O)O)C(N)=O)CSCC(=O)N[C@@H](Cc2cccnc2)C(=O)N1C` [Peptide 5555_p195] ({CH2CO}-[3Pal][NMeNle][Aib][Cha][Phe(4-F)][dD]YY[Phe(4-COOH)][Ala(piperidin-4-yl)][Cha]C[dE]-NH2; thioether N-12), the IC50 was 2.3 nM and the “Imax: % (at 500 nM)” value was 101%.
With `CCCC[C@H]1C(=O)NC(C)(C)C(=O)N[C@@H](CC2CCCCC2)C(=O)N[C@@H](Cc2ccc(F)cc2)C(=O)NC(C)(CO)C(=O)N[C@@H](Cc2ccc(O)cc2)C(=O)N[C@@H](Cc2ccc(O)cc2)C(=O)N[C@@H](CCCNC(N)=O)C(=O)N[C@H](CCCCN)C(=O)N[C@@H](CC2CCCCC2)C(=O)N[C@H](C(=O)N[C@H](CCC(=O)O)C(N)=O)CSCC(=O)N(C)[C@@H](CCC(=O)O)C(=O)N1C` (stereo partly shown) [Peptide 5555_p218] ({CH2CO}-[NMeE][NMeNle][Aib][Cha][Phe(4-F)][ξαMeS]YY[Cit][dK][Cha]C[dE]-NH2; thioether N-12) the IC50 was 0.3 nM and the “Imax: % (at 500 nM)” value was 101%.
With `CCCC[C@H]1C(=O)NC(C)(C)C(=O)N[C@@H](CC2Cc3ccccc3C2)C(=O)N[C@@H](Cc2ccc(F)cc2)C(=O)N2CCC[C@H]2C(=O)N[C@@H](Cc2ccc(O)cc2)C(=O)N[C@@H](Cc2ccc(O)cc2)C(=O)N[C@@H](CCCNC(N)=O)C(=O)N[C@H](CCCCN)C(=O)N[C@@H](CC2CCCCC2)C(=O)N[C@H](C(=O)N[C@H](CCC(=O)O)C(N)=O)CSCC(=O)N(C)[C@@H](CCC(=O)O)C(=O)N1C` [Peptide 5555_p216] ({CH2CO}-[NMeE][NMeNle][Aib][Ala(indan-2-yl)][Phe(4-F)]PYY[Cit][dK][Cha]C[dE]-NH2; thioether N-12) the IC50 was 0.4 nM and the “Imax: % (at 500 nM)” value was 102%.
For `CCCC[C@H]1C(=O)NC(C)(C)C(=O)N[C@@H](CC2CCCCC2)C(=O)N[C@@H](Cc2ccc(F)cc2)C(=O)N[C@H](CC(=O)O)C(=O)N[C@@H](Cc2ccc(O)cc2)C(=O)N[C@@H](Cc2ccc(O)cc2)C(=O)N[C@@H](CCCNC(N)=O)C(=O)N[C@H](CCCCN)C(=O)N[C@@H](CC2CCCCC2)C(=O)N[C@H](C(=O)N[C@H](CCC(=O)O)C(=O)NCCCC[C@H](NC(=O)CC[C@H](NC(=O)CCCCCCCCC(=O)O)C(=O)O)C(=O)O)CSCC(=O)N(C)[C@@H](CCC(=O)O)C(=O)N1C` [Peptide 5555_p233] ({CH2CO}-[NMeE][NMeNle][Aib][Cha][Phe(4-F)][dD]YY[Cit][dK][Cha]C[dE]-X6; thioether N-12), the IC50 was 4.2 nM and the “Imax: % (at 500 nM)” value was 99%.
With `CCCC[C@H]1C(=O)NC(C)(C)C(=O)N[C@@H](CC2CCCCC2)C(=O)N[C@@H](Cc2ccc(F)cc2)C(=O)N(C)[C@H](CC(=O)O)C(=O)N[C@@H](Cc2ccc(O)cc2)C(=O)N[C@@H](Cc2ccc(O)cc2)C(=O)N[C@@H](Cc2ccc(C(=O)O)cc2)C(=O)N[C@@H](CC2CCNCC2)C(=O)N[C@@H](CC2CCCCC2)C(=O)N[C@H](C(=O)N[C@H](CCC(=O)O)C(N)=O)CSCC(=O)N(C)[C@@H](CCC(=O)O)C(=O)N1C` [Peptide 5555_p176] ({CH2CO}-[NMeE][NMeNle][Aib][Cha][Phe(4-F)][dNMeD]YY[Phe(4-COOH)][Ala(piperidin-4-yl)][Cha]C[dE]-NH2; thioether N-12) the IC50 was 0.6 nM and the “Imax: % (at 500 nM)” value was 100%.
In the case of `CCCC[C@H]1C(=O)NC(C)(C)C(=O)N[C@@H](CC2CCCCC2)C(=O)N[C@@H](Cc2ccc(F)cc2)C(=O)NC2(CCN(CC(=O)O)CC2)C(=O)N[C@@H](Cc2ccc(O)cc2)C(=O)N[C@@H](Cc2ccc(O)cc2)C(=O)N[C@@H](Cc2ccc(C(=O)O)cc2)C(=O)N[C@@H](CC2CCNCC2)C(=O)N[C@@H](CC2CCCCC2)C(=O)N[C@H](C(=O)N[C@H](CCC(=O)O)C(N)=O)CSCC(=O)N(C)[C@@H](CCC(=O)O)C(=O)N1C` [Peptide 5555_p173] ({CH2CO}-[NMeE][NMeNle][Aib][Cha][Phe(4-F)][X3]YY[Phe(4-COOH)][Ala(piperidin-4-yl)][Cha]C[dE]-NH2; thioether N-12), the IC50 is reported as 0.6 nM and the “Imax: % (at 500 nM)” value is reported as 100%.
